Source: patent publication US20250214969A1, “PROTEIN DEGRADERS AND USES THEREOF” (Kymera Therapeutics, Inc., priority 2022, published 2025)
pIC50: −log10 of the molar value.

How the values were obtained:
[1] = target: T1, truncated His-MBP-Tev-KLHDC2 (residues 1-363) (Homo sapiens, UniProt Q9Y2U9); experiment: KLHDC2 HTRF binding assay; details: 1 nM KLHDC2 (residues 1-363), fluorescein-labeled diglycine peptide probe
T1 construct: truncated His -MBP-Tev-KLHDC2 (residues 1-363) purified from E. coli; made in house; host or cells: E. coli
T1 sequence (Q9Y2U9 1-363): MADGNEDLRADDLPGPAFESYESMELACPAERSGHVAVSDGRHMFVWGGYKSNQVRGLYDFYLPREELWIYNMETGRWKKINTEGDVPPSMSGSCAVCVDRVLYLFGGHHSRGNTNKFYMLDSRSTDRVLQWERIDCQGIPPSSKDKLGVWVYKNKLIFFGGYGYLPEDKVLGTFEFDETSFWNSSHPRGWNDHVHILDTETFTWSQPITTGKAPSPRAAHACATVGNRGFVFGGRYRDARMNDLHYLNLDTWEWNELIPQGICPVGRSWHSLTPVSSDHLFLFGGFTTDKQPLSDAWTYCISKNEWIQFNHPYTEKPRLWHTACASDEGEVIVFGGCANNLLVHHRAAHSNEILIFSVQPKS

[2] = target: T1, truncated His-MBP-Tev-KLHDC2 (residues 1-363); experiment: KLHDC2 FP competition binding assay; details: 15 nM KLHDC2 (residues 1-363), 10 nM fluorescein-labeled diglycine peptide probe, read-out: KLHDC2 binding Human FP: average external IC50

SMILES	pIC50 [1]	pIC50 [2]
O=C(O)Cn1cc(NC(=O)c2cc(-c3ccccc3)ccn2)ccc1=O [I-267]	< 5.30	< 5.30
O=C(O)Cn1cc(-c2cccc3[nH]ccc23)ccc1=O [I-339]	< 5.30	< 5.30
Cn1ccc2c(-c3ccc(=O)n(CC(=O)O)c3)cccc21 [I-333]	< 5.30	< 5.30
O=C(O)Cn1cc(N2CCCCC2)ccc1=O [I-357]	< 5.30	< 5.30
CN(C)C(=O)c1ccc(-c2ccc(=O)n(CC(=O)O)c2)cc1Cl [I-388]	< 5.30	< 5.30
CN(C)C(=O)c1ccc(-c2ccc(=O)n(CC(=O)O)c2)c(F)c1 [I-383]	< 5.30	< 5.30
CN1CCN(Cc2cccc(-c3ccc(=O)n(CC(=O)O)c3)c2)CC1 [I-305]	< 5.30	< 5.30
O=C(O)Cn1cc(-c2ccccc2O)ccc1=O [I-406]	< 5.30	< 5.30
Cc1cc(-c2ccc(=O)n(CC(=O)O)c2)ccc1F [I-376]	< 5.30	< 5.30
O=C(O)Cn1cc(-c2cncc(/C=C/c3ccccc3)c2)ccc1=O [I-287]	< 5.30	< 5.30
O=C(O)Cn1cc(NC(=O)[C@@H]2CN(c3cccnc3)Cc3ccccc32)ccc1=O [I-34]	< 5.30	< 5.30
O=C(O)Cn1cc(-c2cccc(Cl)c2)ccc1=O [I-375]	< 5.30	< 5.30
O=C(O)Cn1cc(N2C[C@]3(CCCN(c4cccnc4)C3)CC2=O)ccc1=O [I-16]	< 5.30	< 5.30
O=C(O)Cn1cc(-c2ccc(N3CCCC3)nc2)ccc1=O [I-380]	< 5.30	< 5.30
Cc1ccc(F)c(-c2ccc(=O)n(CC(=O)O)c2)c1 [I-343]	< 5.30	< 5.30
O=C(O)Cn1cc(-c2cccc(N3CCOCC3)c2)ccc1=O [I-322]	< 5.30	< 5.30
Cc1cc(=O)n(CC(=O)O)cc1NC(=O)c1ccccc1 [I-316]	< 5.30	< 5.30
O=C(O)Cn1cc(N2CCOCC2)ccc1=O [I-355]	< 5.30	< 5.30
Cc1ccc(C(F)(F)F)cc1-c1ccc(=O)n(CC(=O)O)c1 [I-350]	< 5.30	< 5.30
COc1cccc(-c2cccc(C(=O)Nc3ccc(=O)n(CC(=O)O)c3)c2)c1 [I-292]	< 5.30	< 5.30
NC(=O)Cn1cc(NC(=O)c2cccc(-c3cncc4ccccc34)c2)ccc1=O [I-122]	< 5.30	< 5.30
Cc1cccc(-c2cccn(CC(=O)O)c2=O)c1 [I-391]	< 5.30	< 5.30
Cc1cc(C(=O)Nc2ccc(=O)n(CC(=O)O)c2)sc1-c1cccnc1 [I-171]	< 5.30	< 5.30
COc1ccc(-c2ccccc2C)cc1CC(=O)O [I-352]	< 5.30	< 5.30

SMILES	pIC50 [1]	pIC50 [2]
O=C(O)Cn1cc(NC(=O)c2cccc(-c3cccc(C(F)(F)F)c3)c2)ccc1=O [I-200, 2-(2-oxo-5-(3′-(trifluoromethyl)-[1,1′-biphenyl]-3-carboxamido)pyridin-1 (2H)-yl) acetic acid]	< 5.30	< 5.30
COc1cccc(C2C(C(=O)O)CC(=O)N2C2CC2)c1 (stereo not shown) [I-218]	< 5.30	< 5.30
O=C(O)C1CCOc2ccc(Cl)cc21 (stereo not shown) [I-215]	< 5.30	< 5.30
O=C(O)CCC(=O)NCc1nc2ccccc2s1 [I-225]	< 5.30	< 5.30
Cc1cc(OCc2ccccc2)ccc1-c1ccc(=O)n(CC(=O)O)c1 [I-366]	< 5.30	< 5.30
O=C(O)Cn1cc(NC(=O)COc2cccc3cnccc23)ccc1=O [I-251]	< 5.30	< 5.30
COc1cc2ccccc2cc1C(=O)Nc1ccc(=O)n(CC(=O)O)c1 [I-320]	< 5.30	< 5.30
CC(C)c1ccc(S(=O)(=O)NCCC(=O)Nc2ccc(=O)n(CC(=O)O)c2)cc1 [I-180]	< 5.30	< 5.30
O=C(O)Cn1cc(-c2cccc(CN3CCOCC3)c2)ccc1=O [I-304]	< 5.30	< 5.30
N#Cc1cccc(OCC(=O)Nc2ccc(=O)n(CC(=O)O)c2)c1 [I-258]	< 5.30	< 5.30
O=C(O)Cn1cc(-c2cnc(N3CCOCC3)nc2)ccc1=O [I-361]	< 5.30	< 5.30
CCCc1ccc(C)c(-c2ccc(=O)n(CC(=O)O)c2)c1 [I-349]	< 5.30	< 5.30
CN(C(=O)c1ccccc1)c1ccc(=O)n(CC(=O)O)c1 [I-286]	< 5.30	< 5.30
O=C(O)C1CC(=O)N(C2CCSc3ccccc32)C1 (stereo not shown) [I-213]	< 5.30	< 5.30
NC(=O)c1ccc(CN2C(=O)CCC2C(=O)O)cc1 (stereo not shown) [I-222]	< 5.30	< 5.30
O=C(O)Cc1cccc(NC(=O)c2ccccc2)c1 [I-325]	< 5.30	< 5.30
Cc1sc2c(c1C)C(c1ccc(Cl)cc1)=N[C@@H](CC(=O)NCCCCCCc1ccncc1-c1cccc(C(=O)Nc3ccc(=O)n(CC(=O)O)c3)c1)c1nnc(C)n1-2 [I-475]	6.30 to 7.30	> 7.30
O=C(O)Cc1cc(NC(=O)[C@@H]2CCCN(c3cccnc3)C2)ccc1F [I-27]	< 5.30	< 5.30
Cc1cc(-c2ccc(=O)n(CC(=O)O)c2)c(C)cc1F [I-348]	< 5.30	< 5.30
O=C(O)Cn1cc(NC(=O)COc2ccc(C(F)(F)F)cc2)ccc1=O [I-256]	< 5.30	< 5.30
COc1cc(C(=O)Nc2ccc(=O)n(CC(=O)O)c2)cc(-c2ccccc2)c1 [I-262]	< 5.30	< 5.30
O=C(O)Cn1cc(NC(=O)c2cccc(-c3ccccc3F)c2)ccc1=O [I-288]	< 5.30	< 5.30
NC(=O)Cc1cccc(-c2ccc(=O)n(CC(=O)O)c2)c1 [I-302]	< 5.30	< 5.30

Other lines, results leading:

pIC50 [1]	pIC50 [2]	SMILES
< 5.30	< 5.30	CCOC(=O)Cn1cc(NC(=O)c2cc(CCCCCCNC(=O)OC(C)(C)C)cc(-c3cccnc3)c2)ccc1=O [I-162]
< 5.30	< 5.30	O=C(O)Cc1cc(-c2ccccc2)ccc1O [I-335]
6.30 to 7.30	5.30 to 6.30	O=C(O)Cn1cc(NC(=O)c2cccc(-c3nc4ccccc4s3)c2)ccc1=O [I-138]
5.30 to 6.30	< 5.30	COc1cc(-c2cncs2)ccc1C(=O)Nc1ccc(=O)n(CC(=O)O)c1 [I-154]
5.30 to 6.30	< 5.30	O=C(O)Cn1cc(NC(=O)c2ccc(-c3ccccc3)s2)ccc1=O [I-249]
5.30 to 6.30	< 5.30	CC(C)Cn1cnc2c(C(=O)Nc3ccc(=O)n(CC(=O)O)c3)cccc21 [I-133]
5.30 to 6.30	< 5.30	O=C(O)Cn1cc(NC(=O)c2cccc(-c3ccc(F)cc3)c2)ccc1=O [I-276]
6.30 to 7.30	5.30 to 6.30	CNc1cncc(N2CCC[C@H](C(=O)Nc3ccc(F)c(CC(=O)O)c3)C2)c1 [I-19]
5.30 to 6.30	< 5.30	O=C(O)Cn1cc(NC(=O)c2ccc(-c3ccccc3)c(F)c2)ccc1=O [I-311]
5.30 to 6.30	5.30 to 6.30	NCCCCCCc1ccc(C(=O)Nc2ccc(=O)n(CC(=O)O)c2)cc1-c1cccnc1 [I-144]
5.30 to 6.30	< 5.30	O=C(O)Cn1cc(NC(=O)c2cccc(-c3ccccc3)c2)ccc1=O [I-315]
5.30 to 6.30	< 5.30	Cc1ccc(-c2cccc(C(=O)Nc3ccc(=O)n(CC(=O)O)c3)c2)cc1 [I-275]
6.30 to 7.30	5.30 to 6.30	CC1CCN(c2cccnc2)CC1C(=O)Nc1ccc(=O)n(CC(=O)O)c1 (stereo not shown) [I-61]
5.30 to 6.30	6.30 to 7.30	COc1cc(-c2ccc(CCCCCCCCCNC(=O)C[C@@H]3N=C(c4ccc(Cl)cc4)c4c(sc(C)c4C)-n4c(C)nnc43)cc2)ccc1C(=O)Nc1ccc(=O)n(CC(=O)O)c1 [I-470]
5.30 to 6.30	< 5.30	CC(C)c1ccc(C(=O)Nc2ccc(=O)n(CC(=O)O)c2)cc1-c1ccccc1 [I-175]
6.30 to 7.30	5.30 to 6.30	O=C(O)Cc1cc(NC(=O)[C@H]2CCCN(c3cccnc3)C2)ccc1Cl [I-35]
6.30 to 7.30	5.30 to 6.30	O=C(O)Cn1cc(NC(=O)[C@H]2C[C@H](C(F)(F)F)CN(c3cccnc3)C2)ccc1=O [I-64]
5.30 to 6.30	< 5.30	O=C(O)Cn1cc(NC(=O)c2cccc(-c3cccnc3)n2)ccc1=O [I-141]
5.30 to 6.30	< 5.30	Nc1ccc(F)c2c(O)n[nH]c12 [I-427]
5.30 to 6.30	< 5.30	C[C@@]1(C(=O)Nc2ccc(=O)n(CC(=O)O)c2)CCCN(c2cccnc2)C1 [I-66]
5.30 to 6.30	< 5.30	O=C(O)Cn1cc(NC(=O)c2cccc(-c3cccnc3)c2)c(C2CC2)cc1=O [I-62]
5.30 to 6.30	5.30 to 6.30	O=C(O)Cn1cc(NC(=O)[C@@H]2Cc3ccccc3N(c3cccnc3)C2)ccc1=O [I-11]
> 7.30	5.30 to 6.30	O=C(O)Cn1cc(NC(=O)c2cccc(-c3cncc4ccccc34)c2)ccc1=O [I-131]
6.30 to 7.30	5.30 to 6.30	CCN(CC)c1ccc2cc(C(=O)Nc3ccc(=O)n(CC(=O)O)c3)c(=O)oc2c1 [I-237]
